From patent US7635686B2, “Therapeutically useful triethyleneglycol cholesteryl oligonucleotides” (Bioniche Life Sciences, Inc., priority 2001, dated 2009)
{TEG-Chol} = cholesteryl attached through a triethylene glycol (TEG) linker

Legend:
EL-4 cells = experiment: Activation of caspase 3 in EL-4 cells (PE-antibody flow cytometry); format: cell-based, murine; conditions: 53 μM, 72 hrs; for Percentage of cells containing activated caspase-3: EL-4 cells, untreated 3
Experimental: EL-4 cells (2.5×10^5 cells/ml) were incubated for 72 hrs with 0 μM (control), 53 μM of SEQ ID NO:3 or 53 μM of SEQ ID NO:7. After incubation, both control and treated cells were washed, fixed, permeabilized and incubated with a Phycoerythrin (PE)-conjugated antibody that recognizes the active catalytic unit of caspase 3 (Clone: C92-605; BD Pharmingen, San Diego, Calif., USA) using the conditions recommended by the manufacturer. Fluorescence associated with active caspase 3 was analyzed by flow cytometry on a FACSCALIBUR using the program CellQUEST (both from Becton Dickinson, San Jose, Calif., USA).

Hs578T cells = experiment: Cell cycle progression in Hs578T multicellular spheroids (PI staining); format: cell-based, human; conditions: 53 μM, 72 hrs, FIG. 5
Experimental: Multicellular spheroids (MS) is an example of a special in vitro assay, in which tumor cells are cultured in a 3-dimensional manner to form a “tumor-like” structure. In this system, there is a reinforcement of cell-cell interactions that mimic microenvironmental conditions of malignant cells in solid tumors in vivo. In this type of assay, no extracellular matrix components are added. Cells cultured in this MS system differ from those in 2-dimensional systems (monolayer culture conditions). Some of these differences are related to structural and functional differentiation of tumor cells, changes in the cell cycle of tumor cells, “multicellular drug resistance”, and changes in the diffusion and penetration of drugs throughout layers of tumor cells (reviewed in Green et al., Anticancer Drug Des. 14:153, 1999).
About 100×10^3 Hs578T cells per spheroid were cultured in presence of 53 μM final concentration of SEQ ID NO:3, SEQ ID NO:7, 53 μM final concentration of cholesteryl-TEG phosphoramidite (cholTEG) or corresponding control media (regular culture medium (RCM), RCM with the same amount of water (RCMW) as the amount added with the SEQ ID NO:7, and RCM with the same amount of acetonitrile (RCMA) as the amount added with cholesteryl-TEG phosphoramidite). Five spheroids per each experimental condition were cultured for 72 hrs. Afterwards, cell cycle progression was evaluated by propidium iodide (PI) staining (Calbiochem, Novabiochem Corporation, San Diego, Calif.) using a FACScalibur flow cytometer (Becton Dickinson, Franklin Lakes, N.J.). Changes in the percentage of cells in the different phases of the cell cycle were analyzed using MODFIT LT software (Verity Software House Inc).

HIG-82 cells = experiment: HIG-82 synovial cell proliferation (MTT reduction); format: cell-based, rabbit; conditions: 53 μM, 48 hours; for Inhibition of HIG-82 cell proliferation, inhibition (%): MTT
In short: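 Adherent synovial cells at 10×10^5 cells/ml exposed 48 h to […] at 53 μM final. Proliferation measured by MTT reduction read at 570 nm and expressed as percentage inhibition.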

MDA-MB-231 cells [1] = experiment: MDA-MB-231 xenotransplanted tumors in nude mice (Example 23); format: in vivo; conditions: 0.4, 4, 40 mg/kg intravenously every 3 days, 6 doses maximum; versus saline and SEQ ID NO:3; dose-dependent
Experimental: Breast cancer MDA-MB-231 cells are xenotransplanted subcutaneously in nude mice (1×10^7 cells). The mice are divided into 7 groups of 10 mice. After the tumors reach […] in diameter, group 1 mice receive saline, group 2 mice receive 0.4 mg/kg SEQ ID NO:3, group 3 mice receive 4 mg/kg SEQ ID NO:3, group 4 mice receive 40 mg/kg SEQ ID NO:3, group 5 mice receive 0.4 mg/kg SEQ ID NO:7, group 6 mice receive 4 mg/kg SEQ ID NO:7, group 7 mice receive 40 mg/kg SEQ ID NO:7. Treatments are given intravenously every 3 days for 6 doses maximum. Mice are sacrificed when tumor reach 1 cm in diameter, at any sign of distress or at the end of the study (3 months from cell injection). Complete autopsies are performed. Tumor mass, presence of invasion and metastasis are determined.

MDA-MB-231 cells [2] = experiment: MDA-MB-231 xenotransplanted tumors in nude mice (Example 22); format: in vivo; conditions: 0.5, 5, 50 mg/kg intravenously every 3 days, 6 doses maximum; versus saline and SEQ ID NO:3; dose-dependent
Experimental: MDA-MB-231 cells are xenotransplanted subcutaneously into nude mice. The mice are divided into 7 groups of 10 mice. After the tumors reach 5 mm in diameter, group 1 mice receive saline, group 2 mice receive 0.5 mg/kg SEQ ID NO:3, group 3 mice receive 5 mg/kg SEQ ID NO:3, group 4 mice receive 50 mg/kg SEQ ID NO:3, group 5 mice receive 0.5 mg/kg SEQ ID NO:7, group 6 mice receive 5 mg/kg SEQ ID NO:7, group 7 mice receive 50 mg/kg SEQ ID NO:7. Treatments are given intravenously every 3 days for 6 doses maximum. Mice are sacrificed when tumor reach 1 cm in diameter, at any sign of distress or at the end of the study (3 months from cell injection). Complete autopsies are performed. Tumor mass, presence of invasion and metastasis are determined.

[3] = test system: EL-4 murine T lymphoma cells; experiment: EL-4 lymphoma implanted subcutaneously in C57/BL6 mice; format: in vivo; conditions: 1, 10, 100 mg/kg, after 4 weeks of treatment; versus saline and SEQ ID NO:3; dose-dependent
Experimental: EL-4 murine T lymphoma cells are implanted subcutaneously into C57/BL6 mice as previously described (Krawczyk et al., Cancer Immunol. Immunother. 40:347, 1995). The mice are divided into 7 groups of 10 mice. On day 0, group 1 mice receive saline, group 2 mice receive 1 mg/kg SEQ ID NO:3, group 3 mice receive 10 mg/kg SEQ ID NO:3, group 4 mice receive 100 mg/kg SEQ ID NO:3, group 5 mice receive 1 mg/kg SEQ ID NO:7, group 6 mice receive 10 mg/kg SEQ ID NO:7, group 7 mice receive 100 mg/kg SEQ ID NO:7. After 4 weeks of treatment, the mice are sacrificed and tumor mass is determined.

With “5′ OH-CCACCC-OH 3′ (listed as DNA, chemistry not fully specified) [SEQ ID NO:3]” the “Activation of caspase-3 in EL-4 cells (in words)” value (EL-4 cells) was “inactive”, the “Percentage of cells containing activated caspase-3” value (EL-4 cells) was 4% and the “Cell cycle progression in multicellular spheroids” value (Hs578T cells) was “did not significantly modify cell cycle progression”. For the same substance, the “Inhibition of proliferation of synovial HIG-82 cells (in words)” value (HIG-82 cells) was “did not inhibit proliferation” and the “Inhibition of HIG-82 cell proliferation, inhibition (%)” value (HIG-82 cells) was 0%.
In the case of “5′ OH-CCACCC(TEG-cholesteryl) 3′ (3' {TEG-Chol}, sugars by position and backbone not given here) [SEQ ID NO:7]”, the “Activation of caspase-3 in EL-4 cells (in words)” value (EL-4 cells) was “capacity to induce apoptosis as measured by the activation of caspase-3”, the “Percentage of cells containing activated caspase-3” value (EL-4 cells) was 38% and the “Tumor mass and metastasis” value (MDA-MB-231 cells [1]) was “less tumor mass and metastasis”. The Tumor mass (MDA-MB-231 cells [2]) was “less tumor mass”, the “Cell cycle progression in multicellular spheroids” value (Hs578T cells) was “increased the percentage of cells in G2M and S-phase and decrease the percentage of cells in G0/G1” and the Tumor mass [3] was “less tumor mass”. The “Inhibition of proliferation of synovial HIG-82 cells (in words)” value (HIG-82 cells) was “capacity to inhibit the cellular proliferation” and the “Inhibition of HIG-82 cell proliferation, inhibition (%)” value (HIG-82 cells) was 53%.
